Several values for one entry are separate records, joined by “and”; a condition that tells them apart may be missing. Equal values may be shown once. Marks after values point to notes of the source that are not given here.
Tests used:
[1] = molecular target: T1, Rat recombinant α2,3(O)ST (Rattus norvegicus, UniProt Q11205); test: Sialyltransferase assay with cloned α2,3(O)ST; format: biochemical; conditions: for Sialyltransferase activity (%) Cloned α2,3(O)ST: Table I, acceptor 7.5 mM, [14C] sialylated product quantitated on Biogel P2 column; for acceptor efficiency for cloned α2,3(O)ST: 0.75 mM, compared to 3-O-MeGalβ1,4GlcNAcβ1,6(Galβ1,3)GalNAcα-O-Bn
T1 construct: purchased Calbiochem
T1 sequence (Q11205 1-350): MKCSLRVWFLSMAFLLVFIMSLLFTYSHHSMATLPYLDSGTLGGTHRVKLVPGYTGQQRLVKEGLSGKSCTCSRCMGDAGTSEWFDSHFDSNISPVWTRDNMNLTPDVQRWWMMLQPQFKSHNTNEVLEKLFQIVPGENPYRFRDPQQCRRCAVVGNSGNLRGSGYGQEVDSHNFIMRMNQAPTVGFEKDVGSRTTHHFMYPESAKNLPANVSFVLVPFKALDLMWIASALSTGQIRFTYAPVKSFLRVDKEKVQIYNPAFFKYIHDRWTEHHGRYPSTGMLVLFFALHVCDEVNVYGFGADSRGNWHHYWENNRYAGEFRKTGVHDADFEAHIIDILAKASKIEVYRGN

[2] = molecular target: T1, Rat recombinant α2,3(O)ST; test: Sialyltransferase assay with cloned α2,3(O)ST; format: biochemical; conditions: for Km / Vmax: CMP-NeuAc 150 μM, Lineweaver-Burke plot
LNCaP α2,3(O)ST = test: Sialyltransferase assay with LNCaP cell extract; format: biochemical, human; conditions: for Sialyltransferase activity (%) LNCaP α2,3(O)ST: Table I, acceptor 7.5 mM, 100% = 30930 CPM (3-O-MeGalβ1,4GlcNAcβ1,6(Galβ1,3)GalNAcα-O-Bn)
Summary of the method: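 LNCaP Triton X-100 extract (5 mg protein/ml; 0.1M Tris-maleate pH6.3) incubated with acceptor (typically 7.5 mM) and CMP-[9-3H]NeuAc (typically 0.2 μCi) in 0.1M Na cacodylate pH6.0, 2 h at 37 °C, in duplicate. Radioactive product separated on Dowex-1-formate, Sep-Pak C18 or Biogel P2 and counted by scintillation; blank without acceptor subtracted.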

[3] = molecular target: T2, Rat recombinant α2,3(N)ST (Rattus norvegicus, UniProt Q02734); test: Sialyltransferase assay with cloned α2,3(N)ST; format: biochemical
T2 construct: purchased Calbiochem
T2 sequence (Q02734 29-374 limits assumed): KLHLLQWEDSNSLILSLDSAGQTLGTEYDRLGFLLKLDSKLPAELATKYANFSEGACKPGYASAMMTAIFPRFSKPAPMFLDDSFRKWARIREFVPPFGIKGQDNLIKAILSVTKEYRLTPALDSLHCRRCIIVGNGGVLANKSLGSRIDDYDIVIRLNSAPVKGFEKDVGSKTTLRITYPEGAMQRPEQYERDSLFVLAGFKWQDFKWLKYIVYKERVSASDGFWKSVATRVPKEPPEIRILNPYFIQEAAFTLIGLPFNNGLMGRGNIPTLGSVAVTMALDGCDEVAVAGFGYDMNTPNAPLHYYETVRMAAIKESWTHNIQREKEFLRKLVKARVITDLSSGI
Protocol: (§1) Rat recombinant α2,3(O)ST, α2,3(N)ST and α2,6(N)ST were purchased from Calbiochem and stored at either −20° C. or −70° C. as recommended by the supplier. […] 10 μl aliquots of the diluted enzymes were used in the assays run in duplicate.
(§2) The incubation mixtures run in duplicate contained 0.1M NaCacodylate buffer pH6.0, the acceptor (typically at 7.5 mM, or as indicated in some experiments), CMP-[9 ^3H] NeuAc (typically 0.2 μci; 20 μci/nmol or as indicated in some experiments) and the enzyme in a total volume of 20 μl. The control incubation mixtures contained everything except the acceptor. Incubation was carried out for 2 h at 37° C. The enzymatic transfer of [9-^3H] NeuAc to a typical acceptor was linear for 2 h and less than 30% CMP-[9-^3H] NeuAc was utilized. Chromatography, using either Dowex-1-Formate, Sep-Pak C18 or Biogel P2, was applied to separate radioactive product from un-reacted [9-^3H] NeuAc as described below.
(§3) The radioactive products from neutral allyl and methyl glycosides as well as non-glycosides were measured by fractionation on Dowex-1-Formate (Bio-Rad: AG-1X8; 200-400 mesh; format form) as follows: The incubation mixture was diluted with 1.0 ml water and passed through AG-1-formate column (1.0 ml bed volume in a Pasteur pipet which had been washed with 5 ml of 2M Formic acid followed by 10 ml water). The column was washed twice with 1.0 ml water after the entry of the sample and then eluted with 3.0 ml of 0.1M NaCl. The radioactivity present in water and 0.1M NaCl eluates were measured separately using 3a70 scintillation cocktail (Research Products International, Mount Prospect, Ill.) and a Beckman LS6500 scintillation counter. The CPM values were corrected by subtracting the blank CPM. Any radioactivity present in the water eluate (as noticed in the case of some methylglycosides) was added to the corresponding CPM value of 0.1M NaCl eluate. The radioactive products from sulfated and/or sialylated methylglycosides were also measured by the above procedure, only the elution of the AG-1-Formate column was continued further with 3.0 ml of 0.2M NaCl for achieving a complete elution of the radioactive product, a correction being made as before by subtracting the corresponding blank values.
(§4) The radioactive products from benzylglycosides and monosialylated benzylglycosides were measured by hydrophobic chromatography on Sep-Pak C18 cartridge (Waters, Milford, Mass.) and eluting the product with 3.0 ml methanol (30). The radioactivity was determined by liquid scintillation as above.
(§5) For such work, a Biogel P2 column (Fine Mesh; 1.0×116.0 cm) was used with 0.1M pyridine acetate pH5.4 as the eluent at room temperature. The effluent fractions were monitored for radioactivity and the first peak containing radioactivity was collected, lyophilized to dryness, dissolved in 200 μl of water and stored frozen at −20° C. for thin layer chromatography (TLC) and other experimentation.

[4] = molecular target: T3, Rat recombinant α2,6(N)ST (Rattus norvegicus, UniProt P13721); test: Sialyltransferase assay with cloned α2,6(N)ST; format: biochemical
T3 construct: purchased Calbiochem
T3 sequence (P13721 1-403): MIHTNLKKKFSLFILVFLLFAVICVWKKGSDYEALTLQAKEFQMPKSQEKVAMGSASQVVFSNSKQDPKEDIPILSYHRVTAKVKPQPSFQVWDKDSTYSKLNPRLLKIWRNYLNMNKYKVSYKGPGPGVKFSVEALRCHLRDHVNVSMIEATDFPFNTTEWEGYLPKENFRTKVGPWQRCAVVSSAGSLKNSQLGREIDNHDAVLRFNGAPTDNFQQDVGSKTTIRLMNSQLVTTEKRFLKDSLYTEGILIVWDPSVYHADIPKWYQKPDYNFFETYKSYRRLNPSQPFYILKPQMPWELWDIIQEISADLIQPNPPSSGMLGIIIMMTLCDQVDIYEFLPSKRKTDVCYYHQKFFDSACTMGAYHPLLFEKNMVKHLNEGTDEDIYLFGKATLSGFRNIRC
Protocol: as §1, §2, §3, §4, §5

[5] = Table I, acceptor 7.5 mM, 100% = 40560 CPM (3-O-MeGalβ1,4GlcNAcβ1,6(Galβ1,3)GalNAcα-O-Bn)

SMILES: CC(=O)N[C@H]1[C@H](OC[C@H]2O[C@H](OCc3ccccc3)[C@H](NC(C)=O)[C@@H](O[C@@H]3O[C@H](CO)[C@H](O)[C@H](O)[C@H]3O)[C@H]2O)O[C@H](CO)[C@@H](O[C@@H]2O[C@H](CO)[C@H](O)[C@H](OS(=O)(=O)O)[C@H]2O)[C@@H]1O [3-O-SulfoGalβ1,4GlcNAcβ1,6(Galβ1,3)GalNAcα-O-Bn]
- Sialyltransferase activity (%) Cloned α2,3(O)ST [1]: 70.3^e,6%
- Sialyltransferase activity (%) Cloned α2,3(O)ST ([1]; listed as 3-O-sulfoGalβ1,4GlcNAcβ1,6(Galβ1,3)GalNAcα-O-Bn): 70.3%

SMILES: CC(=O)N[C@H]1[C@H](OC[C@H]2O[C@H](OCc3ccccc3)[C@H](NC(C)=O)[C@@H](O[C@@H]3O[C@H](CO)[C@H](O)[C@H](O)[C@H]3O)[C@H]2O)O[C@H](COS(=O)(=O)O)[C@@H](O)[C@@H]1O [6-O-SulfoGlcNAcβ1,6(Galβ1,3)GalNAcα-O-Bn]
- Sialyltransferase activity (%) Cloned α2,3(O)ST [1]: 49.4% and 49.4^e,5%

SMILES: CC(=O)N[C@H]1[C@H](OC[C@H]2O[C@H](OCc3ccccc3)[C@H](NC(C)=O)[C@@H](O[C@@H]3O[C@H](C)[C@H](O)[C@H](O)[C@H]3O)[C@H]2O)O[C@H](CO)[C@@H](O)[C@@H]1O [D-Fucβ1,3(GlcNAcβ1.6)GalNAcα-O-Bn]
- Km [2]: 280 µM
- Vmax [2]: 1562 pmol/h
- acceptor efficiency for cloned α2,3(O)ST [1]: 100%

SMILES: CC(=O)N[C@H]1[C@@H](OCc2ccccc2)O[C@H](CO)[C@H](O)[C@@H]1O[C@@H]1O[C@H](C)[C@H](O)[C@H](O)[C@H]1O [D-Fucβ1,3GalNAcα-O-Bn]
- Km [2]: 210 µM
- Vmax [2]: 1250 pmol/h
- acceptor efficiency for cloned α2,3(O)ST [1]: 100%

SMILES: C=CCO[C@H]1O[C@H](CO[C@@H]2O[C@H](CO)[C@@H](O)[C@H](O)[C@H]2NC(C)=O)[C@H](O)[C@H](O[C@@H]2O[C@H](CO)[C@H](O)[C@H](O)[C@H]2O)[C@H]1NC(C)=O [Galβ1,3(GlcNAcβ1,6)GalNAcα-O—Al]
- Sialyltransferase activity (%) Cloned α2,3(O)ST [2, 5]: 120.5^1%
- Sialyltransferase activity (%) Cloned α2,3(O)ST ([2]; Table IV, compound 7.5 mM, relative to Galβ1,3(GlcNAcβ1,6)GalNAcα-O—Al): 100.0%
- Sialyltransferase activity (%) LNCaP α2,3(O)ST (LNCaP α2,3(O)ST): 60.4%
- Radioactivity incorporated (100% value) Cloned α2,3(O)ST ([1]; Table IV, compound 7.5 mM): 29860 CPM

SMILES: CC(=O)NC1C(OCC2OC(OCc3ccccc3)C(NC(C)=O)C(OC3OC(CO)C(O)C(O)C3O)C2O)OC(COS(=O)(=O)O)C(OC2OC(CO)C(O)C(O)C2O)C1O (centres unmarked) [Galβ1,4(6-O-Sulfo)GlcNAcβ1,6(Galβ1,3)GalNAcα-O-Bn]
- Sialyltransferase activity (%) Cloned α2,3(O)ST [1]: 69.4% and 69.4^e %

SMILES: CO[C@@H]1[C@H](O)[C@@H](O)[C@H](O[C@H]2[C@@H](O)[C@@H](CO[C@@H]3O[C@H](CO)[C@@H](O[C@@H]4O[C@H](CO)[C@H](O)[C@H](O)[C@H]4O)[C@H](O)[C@H]3NC(C)=O)O[C@H](OCc3ccccc3)[C@@H]2NC(C)=O)O[C@@H]1CO [Galβ1,4GlcNAcβ1,6(4-O-MeGalβ1,3)GalNAcα-O-Bn]
- Cloned Sialyltransferase Activities α2,3(N) ST % ([3]; Table III, compound 7.5 mM, 100% = 38140 CPM (Galβ1,4GlcNAcβ1,6(3-O-MeGalβ1,3)GalNAcα-O-Bn)): 100.6%
- Cloned Sialyltransferase Activities α2,6(N)ST % ([4]; Table III, compound 7.5 mM, 100% = 30440 CPM (Galβ1,4GlcNAcβ1,6(3-O-MeGalβ1,3)GalNAcα-O-Bn)): 101.3%
- Cloned Sialyltransferase Activities α2,3(O) ST % ([2]; Table III, compound 7.5 mM, 100% = 39200 CPM (3-O-MeGalβ1,4GlcNAcβ1,6(Galβ1,3)GalNAcα-O-Bn)): 101.3%
- acceptor concentration at which maximum activity is reached (FIG. 3D) (LNCaP α2,3(O)ST; LNCaPα2,3(O)ST): 0.15 mM
- LNCaPα2,3(O)ST % (LNCaP α2,3(O)ST; Table III, compound 7.5 mM, 100% = 30100 CPM (3-O-MeGalβ1,4GlcNAcβ1,6(Galβ1,3)GalNAcα-O-Bn)): 112.0%

SMILES: C=CCO[C@@H]1O[C@H](CO)[C@@H](O[C@@H]2O[C@H](CO)[C@H](O)[C@H](O)[C@H]2O)[C@H](O)[C@H]1NC(C)=O [Galβ1,4GlcNAcβ-O—Al]
- Sialyltransferase activity (%) Cloned α2,3(N)ST ([3]; Table I, acceptor 7.5 mM, 100% = 29520 CPM (Galβ1,4GlcNAcβ-O—Al)): 100.0^a %
- Sialyltransferase activity (%) Cloned α2,6(N)ST ([4]; Table I, acceptor 7.5 mM, 100% = 43500 CPM (Galβ1,4GlcNAcβ-O—Al)): 100.0% and 100.0^b %
- Sialyltransferase activity (%) Cloned α2,3(O)ST [2, 5]: 4.7%
- Sialyltransferase activity (%) LNCaP α2,3(O)ST (LNCaP α2,3(O)ST): 0.5%
